Test results from publication PMC3274548, “Toward New Therapeutics for Skin and Soft Tissue Infections: Propargyl-Linked Antifolates Are Potent Inhibitors of MRSA and Streptococcus pyogenes” (PLoS ONE, 2012).
In brackets after ≈: the same amount, converted by molar mass. Where two headings read alike, the source gives them in different places.

Key:
[1] = test system: MRSA (S.aureus 13709); experiment: MIC, broth microdilution with Alamar Blue; format: cell-based, Staphylococcus aureus
Experimental: (§1) Stock solutions of standard antibiotics and test compounds were made at 50 mM in DMSO. […] For susceptibility testing, 10 µL of glycerol stock was suspended in a 10 mL shake flask culture of chemically defined Isosensitest broth (Oxoid) supplemented with 2% w/v glucose. A sample of the shake flask culture was diluted to 1×10^6 cells/mL in media and added to 96-well test plates (100 µL per well) containing test compounds dispensed in DMSO (2 µL) using serial two-fold dilutions. After an incubation period (30°C) determined from the strain specific doubling time, a 0.03% w/v aqueous solution of resazurin (10 µL) was added and the plates were allowed to incubate; each well was then scored for dye reduction.

[2] = target: T1, S. aureus DHFR (Staphylococcus aureus, UniProt P0A017); experiment: biochemical; format: biochemical; conditions: for IC50: S. aureus DHFR, average of at least three measurements, read-out: IC50 (nM) Sa; for Selectivity (h/Sa): IC50 (human)/IC50 (pathogen)
T1 construct: the DHFR gene was inserted into vector pET41 with a His8 tag for purification; His8; made in house; host or cells: E. coli BL21 (DE3)
Experimental: (§2) S. aureus DHFR was cloned, expressed and purified as previously described. Briefly, the DHFR gene was inserted into vector pET41 with a His8 tag for purification. The protein was expressed in E. coli BL21 (DE3) cells. […] The protein was concentrated to ∼5 mg/mL. S. pyogenes DHFR was cloned using PCR from genomic DNA and inserted in vector pET-41.
(§3) Enzyme inhibition assays were performed by monitoring the rate of NADPH oxidation by the DHFR enzyme at an absorbance of 340 nm over five minutes. Assays were performed in the presence of saturating concentrations of NADPH (100 µM) and initiated with dihydrofolate (1 mM). All assays were completed at 25°C in a buffer containing 20 mM TES pH 7.0, 50 mM KCl, 10 mM 2-mercaptoethanol, 0.5 mM EDTA and 1 mg/mL BSA. Inhibition was measured at least three times with inhibitor concentrations near the IC50 value and the average IC50 value is reported with a standard deviation.

[3] = target: S. pyogenes DHFR (Streptococcus pyogenes, UniProt Q9A091); experiment: biochemical; format: biochemical; conditions: for IC50: S. pyogenes DHFR, average of at least three measurements, read-out: IC50 (nM) Sp; for Selectivity (h/Sp): IC50 (human)/IC50 (pathogen)
Sequence of S. pyogenes DHFR (Q9A091 entry or part of it): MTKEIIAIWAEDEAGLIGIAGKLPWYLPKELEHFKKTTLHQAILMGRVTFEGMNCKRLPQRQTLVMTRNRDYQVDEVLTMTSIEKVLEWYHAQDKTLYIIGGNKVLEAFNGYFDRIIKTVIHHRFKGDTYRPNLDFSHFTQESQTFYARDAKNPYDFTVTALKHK
Experimental: as §2, §3

[4] = test system: MCF-10 cells; experiment: Mammalian cell toxicity (Alamar Blue); format: cell-based; conditions: read-out: IC50 MCF-10
Experimental: Adherent cell lines were maintained in Eagle's Minimal Essential Media (Sigma-Aldrich, St. Louis, MO, USA) with 2 mM glutamine and Earle's Balanced Salt Solution (HyClone, Logan, UT, USA) adjusted to contain 1.5 g/L sodium bicarbonate, 0.1 mM non-essential amino acids, 1 mM sodium pyruvate and 10% fetal calf serum. Fetal calf serum used in these assays was lot matched throughout. […] Toxicity assays were conducted between passages 10–20. Target compound toxicity was measured by incubating the test compound with the cells for 4 h, washing the cells and finally treating the cells with Alamar Blue. After 12–24 h, the fluorescence of the reduced dye was measured. Fluorescence intensity as a function of test compound concentration was fit to the Fermi equation, using non-linear least squares regression analysis, to estimate IC50 values.

[5] = test system: Streptococcus pyogenes; experiment: MIC, broth microdilution with Alamar Blue; format: cell-based
Experimental: as §1

[6] = target: T2, Human DHFR (Homo sapiens, UniProt P00374); experiment: DHFR enzyme inhibition assay (NADPH oxidation, 340 nm); format: biochemical; conditions: human DHFR; average of at least three measurements; read-out: IC50 (nM) Human
T2 sequence (P00374 1-187): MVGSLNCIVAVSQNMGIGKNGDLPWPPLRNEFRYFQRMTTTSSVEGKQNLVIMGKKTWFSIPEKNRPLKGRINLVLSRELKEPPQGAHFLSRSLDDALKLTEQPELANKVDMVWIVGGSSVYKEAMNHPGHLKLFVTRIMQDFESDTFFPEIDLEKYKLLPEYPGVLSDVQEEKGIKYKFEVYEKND
Experimental: as §3

[7] = value in parentheses, read-out: MIC MRSA
[8] = value in parentheses, read-out: MIC S. pyogenes
[9] = Staphylococcus aureus, MRSA, value in parentheses, read-out: MIC MRSA
[10] = Staphylococcus aureus, MRSA, read-out: MIC MRSA
[11] = Streptococcus pyogenes, value in parentheses, read-out: MIC S. pyogenes
[12] = Streptococcus pyogenes, read-out: MIC S. pyogenes
[13] = IC50 (MCF10)/MIC (pathogen), both values in µM
[14] = 10% fetal calf serum, value in parentheses, read-out: MIC MRSA +FCS
[15] = 10% FCS, value in parentheses, read-out: MIC S. pyogenes +FCS

MIC MRSA [1]	MIC [1, 7]	IC50 [2]	IC50 [3]	MIC S. pyogenes [5]	MIC [5, 8]	Selectivity (h/Sa) [2]	Selectivity (h/Sp) [3]	IC50 [6]	MIC MRSA +FCS ([1]; 10% fetal calf serum)	MIC [1, 14]	MIC S. pyogenes +FCS ([5]; 10% FCS)	MIC [5, 15]	Structure (SMILES)	IC50 ([4]; cytotoxicity, 4 h incubation)	MIC [1, 9]	MIC [1, 10]	MIC [5, 11]	MIC [5, 12]	also measured
0.71 mg/L (≈ 1.91 µM)	2 µM	410 ± 36 nM	350 ± 44 nM	0.024 mg/L (≈ 0.0644 µM)	0.064 µM	–	–	–	–	–	–	–	COc1cc(-c2ccc(C)cc2)cc(C(C)C#Cc2c(C)nc(N)nc2N)c1 (racemic) [Compound 2]	55 µM	–	–	–	–	–
0.66 mg/L (≈ 2.01 µM)	2 µM	28 ± 1.7 nM	26 ± 1.7 nM	0.66 mg/L (≈ 2.01 µM)	2 µM	10	11	290 ± 36 nM	5.2 mg/L (≈ 15.8 µM)	16 µM	2.6 mg/L (≈ 7.92 µM)	8 µM	CCc1nc(N)nc(N)c1C#CCc1cccc(-c2ccccc2)c1 [Compound 8]	32 µM	–	–	–	–	–
0.18 mg/L (≈ 0.502 µM)	0.5 µM	59 ± 2.3 nM	52 ± 1.7 nM	0.18 mg/L (≈ 0.502 µM)	0.5 µM	2.4	3	140 ± 1 nM	1.4 mg/L (≈ 3.91 µM)	4 µM	0.72 mg/L (≈ 2.01 µM)	2 µM	CCc1nc(N)nc(N)c1C#CCc1cc(OC)cc(-c2ccccc2)c1 [Compound 9]	199 µM	–	–	–	–	–

Structure (SMILES)	MIC MRSA [1]	MIC [1, 7]	IC50 [2]	IC50 [3]	MIC S. pyogenes [5]	MIC [5, 8]	Selectivity (h/Sa) [2]	Selectivity (h/Sp) [3]	IC50 [6]	MIC MRSA +FCS ([1]; 10% fetal calf serum)	MIC [1, 14]	MIC S. pyogenes +FCS ([5]; 10% FCS)	MIC [5, 15]	IC50 ([4]; cytotoxicity, 4 h incubation)	MIC [1, 9]	MIC [1, 10]	MIC [5, 11]	MIC [5, 12]	also measured
COc1cc(-c2cc(C)cc(C)c2)cc(C(C)C#Cc2c(C)nc(N)nc2N)c1 (stereo not drawn) [Compound 1]	5.76 mg/L (≈ 14.9 µM)	–	–	–	0.097 mg/L (≈ 0.251 µM)	–	–	–	–	–	–	–	–	–	16 µM	5.8 mg/L	0.25 µM	0.1 mg/L	IC50 ([4]; Homo sapiens, MCF10, 4 h): 47 µM
CCc1nc(N)nc(N)c1C#CCc1cc(-c2ccccc2)ccc1OC [Compound 7]	–	–	2.4 ± 0.2 nM	–	–	–	125	51	300 ± 10 nM	–	–	–	–	–	1 µM	0.18 mg/L	0.016 µM	0.006 mg/L	Selectivity MRSA [1, 13]: 67; fold improvement in potency against S. aureus DHFR ([2]; relative to compound 1): 18 fold; IC50 ([4]; Homo sapiens, MCF10, cytotoxicity, 4 h incubation): 67 µM; Selectivity S. pyogenes [5, 13]: 4,187
